Earlier results as cited in patent US20240398651A1 (Neuro-Innovators, LLC., priority 2021, published 2024).

Experiments:
[1] = in vivo
[2] = previous clinical trials, compared with aspirin

In the case of `O=C1CCc2cc(OCCCCc3nnnn3C3CCCCC3)ccc2N1` [Cilostazol], the elimination half-life [1] is given as 11 to 13 h, the hemorrhagic events [2] is given as “fewer hemorrhagic events” and the “incidence of recurrent stroke” value [2] is given as “significantly reduce the incidence of recurrent stroke”.
